Experiment: SPR measurement of tracer molecule diffusion in a hydrogel layer (channel chip)
Type: physicochemical
Settings: aqueous solutions of glucose and ethanol as tracer molecules; FIG. 5
Protocol: Hereinafter, a molecular diffusion evaluation method according to an embodiment of the present invention will be described with reference to FIG. 1. First, in step S101, a solution in which a target molecule (tracer molecule) is dissolved is introduced into a channel. The channel is formed on, for example, a measurement chip used by being attached to a surface plasmon resonance (SPR) measurement system. The channel includes a measurement area by surface plasmon resonance and a hydrogel layer provided in the middle of the measurement area. […] In a process where the solution in which the target molecule is dissolved passes through the portion where the hydrogel layer is not formed and the portion where the hydrogel layer is formed, the refractive index (SPR angle) at each portion is measured in time series, and the refractive index change (time change in SPR angle) at each portion is acquired. The refractive index change measured in the process of passing through the portion where the hydrogel layer is not formed is the first measurement result. In addition, the refractive index change measured in the process of passing through the portion where the hydrogel layer is formed is the second measurement result. Next, in step S103, the diffusion rate of molecules in the hydrogel is evaluated by comparing the first measurement result with the second measurement result (evaluation step). […]

## CCO [ethanol]
  diffusion rate in the acrylamide gel, comparison of scaled SPR angle change curves: different
